From PubChem BioAssay (NCI)
Values joined by “and” are separate entries in the source; they are usually repeats but may differ in a detail not shown here. Equal entries are not always repeated.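 Where inhibition never reached the appropriate level, the endpoint shown equals the highest concentration tested. Otherwise, values were interpolated linearly from a five-concentration, 48-hour dose response in 96-well plates. GI50 is the concentration that inhibits growth by half. TGI is the concentration that stops growth completely.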

How the values were obtained:
Experiment in all cases: NCI anticancer screen, dose series, 48 h
ACHN renal = system: ACHN renal
CCRF-CEM leukemia = system: CCRF-CEM leukemia
HCC-2998 colon = system: HCC-2998 colon
HCT-116 colon = system: HCT-116 colon
HL-60(TB) leukemia = system: HL-60(TB) leukemia
IGROV1 ovarian = system: IGROV1 ovarian
NCI-H23 lung = system: NCI-H23 lung
PC-3 prostate = system: PC-3 prostate
SR leukemia = system: SR leukemia
UACC-62 melanoma = system: UACC-62 melanoma

| SMILES | TGI (ACHN renal) | TGI (CCRF-CEM leukemia) | TGI (HCC-2998 colon) | TGI (HCT-116 colon) | TGI (HL-60(TB) leukemia) | TGI (IGROV1 ovarian) | TGI (NCI-H23 lung) | TGI (PC-3 prostate) | TGI (SR leukemia) | TGI (UACC-62 melanoma) | GI50 (ACHN renal) | GI50 (CCRF-CEM leukemia) | GI50 (HCC-2998 colon) | GI50 (HCT-116 colon) | GI50 (HL-60(TB) leukemia) | GI50 (IGROV1 ovarian) | GI50 (NCI-H23 lung) | GI50 (PC-3 prostate) | GI50 (SR leukemia) | GI50 (UACC-62 melanoma) |
| --- | --- | --- | --- | --- | --- | --- | --- | --- | --- | --- | --- | --- | --- | --- | --- | --- | --- | --- | --- | --- |
| Nc1nc(Cl)cc(NCC2(O)CCCC2)n1 | > 100 µM | > 100 µM | > 100 µM | > 100 µM | > 100 µM | > 100 µM | > 100 µM | > 100 µM | > 100 µM | > 100 µM |  |  |  |  |  |  |  |  |  |  |
| NS(=O)(=O)c1ccc(NNc2c3ccccc3nc3c(C(=O)Nc4ccc(S(=O)(=O)Nc5ncccn5)cc4)cccc23)cc1 | > 25 µM | > 25 µM | > 25 µM | > 25 µM | > 25 µM | > 25 µM | > 25 µM | > 25 µM | > 25 µM | > 25 µM |  |  |  |  |  |  |  |  |  |  |
| CCOC(=O)c1cnccc1CC1(C#N)c2ccccc2C=CN1C(=O)c1ccccc1 (configuration not stated) | > 100 µM | > 100 µM | > 100 µM | > 100 µM | > 100 µM | 39.9 µM | > 100 µM | > 100 µM | 92.7 µM | 80.9 µM |  |  |  |  |  |  |  |  |  |  |
| NC1=NCC(CN2CCCC2)O1 (configuration not stated) | > 100 µM | > 100 µM | > 100 µM | > 100 µM | > 100 µM | > 100 µM | > 100 µM | > 100 µM | > 100 µM | > 100 µM |  |  |  |  |  |  |  |  |  |  |
| O=C1CC(n2cccc2)c2c(Br)sc(Br)c21 (configuration not stated) | 31.8 µM | 26.8 µM | 28.7 µM | 28.7 µM | 41.4 µM | 32.7 µM | 27.9 µM | 33.9 µM | 12 µM | 30.3 µM |  |  |  |  |  |  |  |  |  |  |
| O=C(Nc1cccc(-n2cc(-c3ccncc3)c(-c3ccc(O)c(Cl)c3)n2)c1)c1cccc(C(F)(F)F)c1 | > 100 µM | > 100 µM | > 100 µM | > 100 µM | 6.76 µM | > 100 µM | > 100 µM | > 100 µM | 8.1 µM | > 100 µM | 3.71 µM | 1.88 µM | 4.37 µM | 3.24 µM | 2.68 µM | 9.88 µM | 4.38 µM | 3.62 µM | 1.6 µM | 6.52 µM |
| Cc1nc2ccc(Cl)cc2c2c1CCN2c1ccccc1 | 62.4 µM | 23.1 µM | 24.8 µM | 17.6 µM | 11.1 µM | > 100 µM | 43.6 µM | 29.5 µM | 36.3 µM | 23.6 µM |  |  |  |  |  |  |  |  |  |  |
| COc1ccc(-c2cc(C(O)C3CCCCN3)c3ccccc3n2)cc1 (configuration not stated) | 24.4 µM | 9.08 µM | 3.7 µM | 21.5 µM | 26.4 µM | 22.4 µM | 31.6 µM | 16.9 µM | 1.46 µM | 12 µM |  |  |  |  |  |  |  |  |  |  |
| Cc1ccc(/C(O)=C/c2nc3ccc([N+](=O)[O-])cc3nc2/C=C(\O)c2ccc(C)cc2)cc1 | > 100 µM | > 100 µM | > 100 µM | > 100 µM | > 100 µM | > 100 µM | > 100 µM | > 100 µM | > 100 µM | > 69.3 µM |  |  |  |  |  |  |  |  |  |  |
| CCOC(=O)C1(C(F)(F)F)N=C(CC)OC(N2CCOCC2)=N1 (configuration not stated) | > 100 µM | > 100 µM | > 100 µM | > 100 µM | > 100 µM | > 100 µM | > 100 µM | > 100 µM | > 100 µM | > 100 µM |  |  |  |  |  |  |  |  |  |  |
| CCOP(=O)(OCC)C(C)(CC)NC(=O)C(C(F)(F)F)C(F)(F)F (configuration not stated) | > 100 µM | 48.7 µM and 53.1 µM | > 100 µM | > 100 µM | 64.6 µM | > 100 µM | > 100 µM | > 100 µM | > 100 µM | > 100 µM |  |  |  |  | 25.8 µM |  |  |  |  | > 100 µM |
| C/C(Nc1ccc(Cl)cc1Cl)=C1/CCOC1=O | > 100 µM | > 100 µM | > 100 µM | > 100 µM | > 100 µM | > 100 µM | > 100 µM | > 100 µM | > 100 µM | > 100 µM |  |  |  |  |  |  |  |  |  |  |
| COc1ccc(C(O)CC(O)(C(F)(F)F)C(F)(F)F)cc1 (configuration not stated) | > 100 µM | 45.7 µM | > 100 µM | 38.1 µM | 37 µM | 84.4 µM | 77.5 µM | 55.7 µM | 56.3 µM | 87.4 µM |  |  |  |  |  |  |  |  |  |  |
| NCCOCC(N)C(=O)O (configuration not stated) | > 100 µM | > 100 µM | > 100 µM | > 100 µM | > 100 µM | > 100 µM | > 100 µM | > 100 µM | > 100 µM | > 100 µM |  |  |  |  |  |  |  |  |  |  |
| O=C(/C=C/c1cccs1)c1ccccc1Cl | 29.4 µM | 33.9 µM | 32.2 µM | 25.7 µM | 30.4 µM | > 65 µM | 25.8 µM | 34.5 µM | > 47.6 µM | 27.5 µM |  |  |  |  |  |  |  |  |  |  |
| CCOC(=O)C(=O)C(=O)NN(C)C1=NCCN1 | > 100 µM | > 100 µM | > 100 µM | > 100 µM | > 100 µM | > 100 µM | > 100 µM | > 100 µM | > 100 µM | > 100 µM |  |  |  |  |  |  |  |  |  |  |
| Cc1ccc(S(=O)(=O)n2cc(C#N)c(C#N)c2)cc1 | 40.7 µM | 92.1 µM | 48.2 µM | > 100 µM | 71.6 µM | > 100 µM | 91.3 µM | 85 µM | 71 µM | 33.7 µM |  |  |  |  |  |  |  |  |  |  |
| CCCNc1ncnc2[nH]ncc12 | > 100 µM | > 100 µM | > 100 µM | > 100 µM | > 100 µM | > 100 µM | > 100 µM | > 100 µM | > 100 µM | > 100 µM |  |  |  |  |  |  |  |  |  |  |
| O=c1cc(NCc2ccncc2)[nH]c(=O)[nH]1 | > 100 µM | > 100 µM | > 100 µM | > 100 µM | > 100 µM | > 100 µM | > 100 µM | > 100 µM | > 100 µM | > 100 µM |  |  |  |  |  |  |  |  |  |  |
